Each structure is given as a SMILES string. Calls of active or inactive are those of the source. No cut-off for these calls is given here.

Data on 1 compound can be found in ChEMBL document CHEMBL5620418.

For this assay, the system named is Mus musculus. As to the kind of experiment: Inhibition of morphine-induced intestinal propulsion function in mouse assessed as charcoal propulsion length at 10 mg/kg, ip by charcoal gavage and intestinal motility assays. It is filed as functional, organism-based.

For `COC(=O)/C=C/C(=O)N[C@@H]1CC[C@@]2(O)[C@H]3Cc4ccc(O)c5c4[C@@]2(CCN3CC2CC2)[C@H]1O5`, the inhibition result was “Active”.
